# Data published in patent US12601734B2, “Methods and uses of enzymatic labeling of ADP-ribose containing molecules” (THE JOHNS HOPKINS UNIVERSITY, priority 2018, dated 2026).
# Test system: HaCaT cells
# Assay: ELTA labeling (32P-dATP, sequencing gel) of PAR isolated from H2O2-treated cells
# Type: cell-based
# Details: HaCaT cells pre-treated with inhibitor prior to H2O2 induction of PAR (FIG. 6b)
# Experimental: FIG. 6A-6B illustrates the detection of ADP-ribose length using ELTA. (a) A sequencing gel of the ELTA labeling reaction of ADP-ribose monomer (lane 1), PAR (lane 2), and of ADP-ribose monomer and polymer isolated from in vitro ADP-ribosylated PARP1 by NAD^+ in the presence of the PARP inhibitor Olaparib (lane 3), by NAD^+ for 10 min in the absence of Olaparib (lane 4) and by NAD^+ for 30 min (lane 5). As a comparison, the ADP-ribose monomer and polymer isolated from in vitro ADP-ribosylated PARP1 by NAD+ with a trace of ^32P-NAD+ in the presence of Olaparib for 30 min (lane 6), by NAD^+ for 10 min in the absence of Olaparib (lane 7) and by NAD^+ for 30 min (lane 8). (b) A sequencing gel of the ELTA labeling reaction of ADP-ribose monomer and polymer isolated from in vitro ADP-ribosylated haPARP (lane 1), from untreated cancer cells (lane 2), from cancer cells with DNA damage (lane 3), from cancer cells with DNA damage and treated with PARP inhibitor (lane 4) and from cancer cells with DNA damage and treated with PARG inhibitor (lane 5).
# Next, the inventors tested whether ELTA can be used to examine PAR isolated from cells (FIG. 6b). PAR was retrieved from cells using a solid-phase extraction method that allows for the high recovery of PAR without any bias of different chain length. HaCaT cells were either untreated, H2O2-treated to induce PARylation, pre-treated with PARP inhibitor Olaparib prior to H2O2 induction of PAR, or pre-treated with inhibitor against the PAR-degrading enzyme PARG (PDD 00017273) prior to H2O2 induction of PAR. As a control, the inventors also isolated PAR from in vitro modified Herpetosiphon aurantiacus PARP (haPARP), which usually generates PAR of 2-25 mer (lane 1), using the same solid-phase extraction method. As expected, we observed significant PAR signals in H2O2-treated cell samples (FIG. 6b; lane 3), which is longer from the one isolated from haPARP (lane 1). […] Taken together, ELTA can assess the length of PAR isolated in vitro or from cells.
Compound,PAR signal isolated from cells,PAR length distribution isolated from cells
O=C(c1cc(Cc2n[nH]c(=O)c3ccccc23)ccc1F)N1CCN(C(=O)C2CC2)CC1 [Olaparib],reduced the signal to background level,–
PDD 00017273,enrichment of overall signals,stronger signals were observed at a shorter range
